From patent US7977352B2, “Triazolopyridine compounds useful for the treatment of degenerative and inflammatory diseases” (Galapagos NV, priority 2006, dated 2011)

Experiments:
[1] = test system: MMP1 expression by activated synovial fibroblasts (RASFs); test: MMP assay: MMP1 expression by RASFs triggered with TNF-α (MMP1 ELISA); assay type: cell-based; details: Fibroblast, 48 h, TNF-α trigger 10 ng/mL, semi-quantitative score, read-out: REDUCTION MMP1/TNFa
Protocol: A 384-well format ELISA for measurement of MMP1 is developed. Various primary antibodies are tested, as well as various ELISA protocols. The following protocol is developed and validated to measure MMP1 levels in SF supernatant in 384 well plates: white Lumitrac 600 384 well plates (Greiner) are coated with 2 μg/mL anti-MMP1 antibody MAB1346 (Chemicon). The antibody is diluted in buffer 40 (1.21 g Tris base (Sigma), 0.58 g NaCl (Calbiochem) and 5 mL 10% NaN3 (Sigma) in 1 L milliQ water and adjusted to pH 8.5). After overnight incubation at 4° C., plates are washed with PBS (80 g NaCl, 2 g KCl (Sigma), 11.5 g Na2HPO4.7H2O and 2 g KH2PO4 in 10 L milliQ; pH 7.4) and blocked with 100 μL/well Casein buffer (2% Casein (VWR International) in PBS). Next day, casein buffer is removed from ELISA plates and replaced by 50 μL/well EC buffer (4 g casein, 2.13 g Na2HPO4 (Sigma), 2 g bovine albumin (Sigma), 0.69 g NaH2PO4.H2O (Sigma), 0.5 g CHAPS (Roche), 23.3 g NaCl, 4 mL 0.5 M EDTA pH 8 (Invitrogen), 5 mL 10% NaN3 in 1 L milliQ and adjusted to pH 7.0). 0.25 mM DTT (Sigma) is added to the thawed sample plates. After removal of the EC buffer, 20 μL of sample is transferred to the ELISA plates. After overnight incubation at 4° C. plates are washed twice with PBS and once with PBST (PBS with 0.05% Tween-20 (Sigma)) and incubated with 35 μL/well biotinylated anti-MMP1 antibody solution (R&D). This secondary antibody is diluted in buffer C (0.82 g NaH2PO4.H2O, 4.82 g Na2HPO4, 46.6 g NaCl, 20 g bovine albumin and 4 mL 0.5M EDTA pH 8 in 2 L milliQ and adjusted to pH 7.0) at a concentration of 5 μg/mL. After 2 h of incubation at RT, plates are washed as described above and incubated with 50 μL/well streptavidin-HRP conjugate (Biosource). Streptavidin-HRP conjugate is diluted in buffer C at a concentration of 0.25 μg/mL. After 45 min, plates are washed as described above and incubated for 5 min with 50 μL/well BM Chem ELISA Substrate (Roche). Readout is performed on the Luminoscan Ascent Luminometer (Labsystems) with an integration time of 200 msec or with an Envision reader (Perkin Elmer).
SFs were acquired at passage 1 from a commercial supplier (Cell applications, Inc.). SFs are cultured in DMEM supplemented with 10% heat-inactivated FBS, 1× penicillin/streptomycin (Invitrogen) at 37° C., 10% CO2 until passage 6. Aliquots of the cells are frozen and cryopreserved in liquid nitrogen. Starting from a cryopreserved aliquot, cells are further expanded by sub-culturing cells at 1/3 ratio every week. Cells between passage 10 and 12 are routinely used in compound testing according to following protocol.
Starting from the compound master stocks (all at 10 mM concentration in 100% DMSO) a 3-fold serial dilution is made in 96-well plates in 100% DMSO. Then, plates are further diluted 45-fold in M199 medium supplemented with 1% heat-inactivated FBS to obtain a intermediate work stock.
At day 1, RASFs are seeded in 96 well plates (flat bottom, tissue culture treated, Greiner) at a density of 3000 cells/well in complete synovial growth medium (Cell Applications). Day 5, the medium is completely removed from the cells, and replaced by 81 μL of M199 medium supplemented with 1% heat-inactivated FBS followed by addition of 10 μL compound out of the intermediate work stock. After an incubation period of 90 minutes, which allows the compounds to equilibrate and enter the cells, cells are stimulated with either TNF-α or ‘complex trigger’. TNF-α trigger is added in a volume of […] to obtain final concentration of 10 ng/mL. For that, TNF-α stock (PeproTech) at 10 μg/mL was diluted to 100 ng/mL TNF-a in M199 medium supplemented with 1% FBS. ‘Complex trigger’ mix is added in a volume of 20 μL to obtain a final concentration of 12.5%. For that, ‘complex trigger’ mix, is diluted to 80% with M199 medium supplemented with 1% FBS. […]

TAK1-TAB1 fusion protein = biological target: T1, TAK1-TAB1 fusion protein (Homo sapiens, UniProt O43318); test: In vitro TAK1 kinase assay; assay type: biochemical; details: casein substrate, [33P]-γ-ATP, 90 minutes at 30° C., semi-quantitative score, read-out: POTENCY TAK1 (MAP3K7)
T1 construct: purchased Upstate 14-600
T1 sequence (O43318 with tags, fused parts or gaps limits assumed): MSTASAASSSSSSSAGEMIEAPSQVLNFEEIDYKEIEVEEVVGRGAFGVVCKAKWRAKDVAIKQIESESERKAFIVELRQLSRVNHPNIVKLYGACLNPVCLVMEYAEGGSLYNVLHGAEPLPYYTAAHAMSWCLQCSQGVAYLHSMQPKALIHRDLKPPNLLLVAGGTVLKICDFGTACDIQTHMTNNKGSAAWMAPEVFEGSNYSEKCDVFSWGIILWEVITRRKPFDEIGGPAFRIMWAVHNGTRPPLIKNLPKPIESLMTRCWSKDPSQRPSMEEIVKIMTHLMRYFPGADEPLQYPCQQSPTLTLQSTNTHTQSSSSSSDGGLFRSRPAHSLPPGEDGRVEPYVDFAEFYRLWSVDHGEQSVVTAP
Protocol: For assessing TAK1 inhibition, active TAK1-TAB1 fusion protein was used from Upstate (Cat. No, 14-600). Kinase reactions are set up in 96-well polypropylene plates in 25 μL containing 0.5 mU TAK1-TAB1 fusion protein, 5mM ATP, 0.01 μCi/μL [^33P]-γ-ATP, 0.1 mg/mL casein substrate in 1× reaction buffer containing 10 mM MOPS pH 7.0, 1 mM EDTA.
Starting from the compound master stocks (all at 10 mM concentration in 100% DMSO) a 3-fold serial dilution is made in 96-well plates in 100% DMSO. Plates are further diluted […] in H2O containing 3.5% DMSO, to obtain an intermediate work stock with compounds at 5× the final assay concentration in 5% DMSO.
5 μL of the intermediate stock is transferred into V-bottom 96 well polypropylene plates and 11 μL of Enzyme mix is added. Enzyme mix is made by combining 5 μL 5× reaction buffer ([…] pH 7.0, 1 mM EDTA), 5 μL casein (Sigma) diluted in H20 to 0.5 mg/mL and 1 μL of TAK1-TAB1 fusion protein that was prediluted to 0.5 mU/μL in 1× enzyme dilution buffer (20 mM MOPS pH 7.0, 0.1 mM EDTA, 0.01% Brij-35, 5% glycerol, 1 mM DTT, 1 mg/ml BSA).
The reactions are started by the addition of 9 μL of mixture containing ATP (20.83 uM) and [^33P]-γ-ATP (0.028 μCi/μL).
The assay is stopped 90 minutes after incubation at 30° C. by the addition of 25 μL phosphoric acid (150 mM). The label incorporated into the casein substrate is separated from labeled unincorporated ATP by filtration onto 96-well filter plates using a harvester device. After 6 washes with 75 mM phosphoric acid, the bottom of the filter plates are sealed, and incorporated label is quantified after addition of 40 μL scintillation fluid using TopCount.

| SMILES | IC50 (TAK1-TAB1 fusion protein) | IC50 [1] |
| --- | --- | --- |
| CC(C)N1CCN(c2ccc(Nc3ccc(-c4ccc5cc[nH]c5c4)n4ncnc34)cc2)CC1 [Example 53, 5-(1H-indol-6-yl)-N-[4-(4-isopropylpiperazin-1-yl)phenyl][1,2,4]triazolo[1,5-a]pyridin-8-amine] | > 10 µM | > 10 µM |
| c1cc(-c2ccc(Nc3ccc(N4CCOCC4)cc3)c3ncnn23)c2cc[nH]c2c1 [Example 48, 5-(1H-indol-4-yl)-N-(4-morpholin-4-ylphenyl)[1,2,4]triazolo[1,5-a]pyridin-8-amine] | > 10 µM | 1 to 5 µM |
| CCN1CCN(c2ccc(Nc3ccc(-c4ccnc(OC)c4)n4ncnc34)cc2)CC1 [Example 26, N-[4-(4-ethylpiperazin-1-yl)phenyl]-5-(2-methoxypyridin-4-yl)[1,2,4]triazolo[1,5-a]pyridin-8-amine] | > 10 µM | 1 to 5 µM |
| C[C@@H]1CN(c2ccc(Nc3ccc(-c4cc[nH]c(=O)c4)n4ncnc34)cc2F)C[C@H](C)N1C [Example 9, 4-[8-({3-fluoro-4-[(3R,5S)-3,4,5-trimethylpiperazin-1-yl]phenyl}amino)[1,2,4]triazolo[1,5-a]pyridin-5-yl]pyridin-2(1H)-one] | 0.501 to 1 µM | 1 to 5 µM |
| CCC(CC)N1CCN(c2ccc(Nc3ccc(-c4ccnc(OC)c4)n4ncnc34)cc2)CC1 [Example 28, N-{4-[4-(1-ethylpropyl)piperazin-1-yl]phenyl}-5-(2-methoxypyridin-4-yl)[1,2,4]triazolo[1,5-a]pyridin-8-amine] | > 10 µM | 1 to 5 µM |
| COc1ncc(-c2ccc(Nc3ccc(N4CCOCC4)cc3)c3ncnn23)c(OC)n1 [Example 54, 5-(2,4-dimethoxypyrimidin-5-yl)-N-(4-morpholin-4-ylphenyl)[1,2,4]triazolo[1,5-a]pyridin-8-amine] | > 10 µM | > 10 µM |
| CC(C)N1CCN(c2ccc(Nc3ccc(-c4ccc5[nH]ccc5c4)n4ncnc34)cc2)CC1 [Example 51, 5-(1H-indol-5-yl)-N-[4-(4-isopropylpiperazin-1-yl)phenyl][1,2,4]triazolo[1,5-a]pyridin-8-amine] | > 10 µM | > 10 µM |
| COc1cc(-c2ccc(Nc3ccc(N4CCN(C5CCC5)CC4)cc3)c3ncnn23)ccn1 [Example 31, N-[4-(4-cyclobutylpiperazin-1-yl)phenyl]-5-(2-methoxypyridin-4-yl)[1,2,4]triazolo[1,5-a]pyridin-8-amine] | > 10 µM | 5 to 10 µM |

Second part, led by results:

| IC50 (TAK1-TAB1 fusion protein) | SMILES | IC50 [1] |
| --- | --- | --- |
| < 0.5 µM | CCC(CC)N1CCN(c2ccc(Nc3ccc(-c4cn[nH]c4)n4ncnc34)cc2)CC1 [Example 34, N-{4-[4-(1-ethylpropyl)piperazin-1-yl]phenyl}-5-(1H-pyrazol-4-yl)[1,2,4]triazolo[1,5-a]pyridin-8-amine] | 1 to 5 µM |
| < 0.5 µM | O=c1cc(-c2ccc(Nc3ccc(N4CCN(C5CC5)CC4)cc3)c3ncnn23)cc[nH]1 [Example 23, 4-(8-{[4-(4-cyclopropylpiperazin-1-yl)phenyl]amino}[1,2,4]triazolo[1,5-a]pyridin-5-yl)pyridin-2(1H)-one] | 1 to 5 µM |
| < 0.5 µM | CCCN1CCN(c2ccc(Nc3ccc(-c4cc[nH]c(=O)c4)n4ncnc34)cc2)CC1 [Example 20, 4-(8-{[4-(4-propylpiperazin-1-yl)phenyl]amino}[1,2,4]triazolo[1,5-a]pyridin-5-yl)pyridin-2(1H)-one] | 1 to 5 µM |
| < 0.5 µM | NC(=O)c1ccc(-c2ccc(Nc3ccc(N4CCN(C5CCC5)CC4)cc3)c3ncnn23)cc1 [Example 16, 4-(8-{[4-(4-cyclobutylpiperazin-1-yl)phenyl]amino}[1,2,4]triazolo[1,5-a]pyridin-5-yl)benzamide] | 5 to 10 µM |
| < 0.5 µM | c1nc2c(Nc3ccc(N4CCN(C5CCC5)CC4)cc3)ccc(-c3cn[nH]c3)n2n1 [Example 35, N-[4-(4-cyclobutylpiperazin-1-yl)phenyl]-5-(1H-pyrazol-4-yl)[1,2,4]triazolo[1,5-a]pyridin-8-amine] | > 10 µM |
| < 0.5 µM | CCC(CC)N1CCN(c2ccc(Nc3ccc(-c4cc[nH]c(=O)c4)n4ncnc34)cc2)CC1 [Example 21, 4-[8-({4-[4-(1-ethylpropyl)piperazin-1-yl]phenyl}amino)[1,2,4]triazolo[1,5-a]pyridin-5-yl]pyridin-2(1H)-one] | > 10 µM |
| < 0.5 µM | C[C@@H]1CN(C)[C@@H](C)CN1c1ccc(Nc2ccc(-c3cc[nH]c(=O)c3)n3ncnc23)cc1 (racemic) [Example 10, rel-4-[8-({4-[(2R,5S)-2,4,5-trimethylpiperazin-1-yl]phenyl}amino)[1,2,4]triazolo[1,5-a]pyridin-5-yl]pyridin-2(1H)-one] | 0.501 to 1 µM |
| < 0.5 µM | C[C@@H]1CN(c2ccc(Nc3ccc(-c4cc[nH]c(=O)c4)n4ncnc34)cc2)C[C@H](C)N1C [Example 57, 4-[8-({4-[(3R,5S)-3,4,5-trimethylpiperazin-1-yl]phenyl}amino)[1,2,4]triazolo[1,5-a]pyridin-5-yl]pyridin-2(1H)-one] | 1 to 5 µM |
